According to the NIST ThermoML archive (doi:10.1021/je049808f):
± gives the expanded uncertainty stated by the source.

What was measured:
[1] = cn = amount concentration of the nth substance listed, in mol/dm3; settings: 100 kPa, Liquid
[2] = 298.15 K, Liquid

[I-].[NH4+] [ammonium iodide] + CCO
[1]
Settings	mass density [kg/m3]	viscosity [mPa·s]
298.15 K, c1 = 0.1638	804.1 ± 1.1	1.229 ± 0.038
298.15 K, c1 = 0.2289	811.7 ± 1.1	1.275 ± 0.04
298.15 K, c1 = 0.3302	823.9 ± 1	1.35 ± 0.042
298.15 K, c1 = 0.4015	832.7 ± 1	1.414 ± 0.044
298.15 K, c1 = 0.4696	841.1 ± 1	1.495 ± 0.046
298.15 K, c1 = 0.6094	859.4 ± 0.9	1.557 ± 0.048
298.15 K, c1 = 0.6694	867 ± 0.9	1.598 ± 0.049
298.15 K, c1 = 0.7343	875.8 ± 0.8	1.663 ± 0.051
298.15 K, c1 = 0.8676	894.5 ± 0.8	1.77 ± 0.053
298.15 K, c1 = 0.972	908.9 ± 0.7	1.839 ± 0.055
303.15 K, c1 = 0.1629	799.8 ± 1.1	1.12 ± 0.035
303.15 K, c1 = 0.2276	807.4 ± 1.1	1.161 ± 0.037
303.15 K, c1 = 0.3285	819.6 ± 1.1	1.225 ± 0.038
303.15 K, c1 = 0.3994	828.4 ± 1	1.284 ± 0.04
303.15 K, c1 = 0.4673	836.9 ± 1	1.359 ± 0.042
303.15 K, c1 = 0.6064	855.1 ± 0.9	1.413 ± 0.044
303.15 K, c1 = 0.6661	862.7 ± 0.9	1.454 ± 0.045
303.15 K, c1 = 0.7307	871.6 ± 0.9	1.499 ± 0.046
303.15 K, c1 = 0.8635	890.2 ± 0.8	1.599 ± 0.049
303.15 K, c1 = 0.9674	904.7 ± 0.7	1.674 ± 0.051
308.15 K, c1 = 0.162	795.5 ± 1.2	1.048 ± 0.033
308.15 K, c1 = 0.2264	803.1 ± 1.1	1.059 ± 0.034
308.15 K, c1 = 0.3268	815.3 ± 1.1	1.117 ± 0.035
308.15 K, c1 = 0.3974	824.1 ± 1	1.165 ± 0.037
308.15 K, c1 = 0.4658	834.2 ± 3	1.241 ± 0.039
308.15 K, c1 = 0.6033	850.8 ± 0.9	1.287 ± 0.04
308.15 K, c1 = 0.6628	858.4 ± 0.9	1.327 ± 0.041
308.15 K, c1 = 0.7271	867.3 ± 0.9	1.365 ± 0.042
308.15 K, c1 = 0.8593	885.9 ± 0.8	1.459 ± 0.045
308.15 K, c1 = 0.9628	900.4 ± 0.7	1.544 ± 0.047
313.15 K, c1 = 0.1611	791.1 ± 1.2	0.935 ± 0.03
313.15 K, c1 = 0.2252	798.8 ± 1.1	0.968 ± 0.031
313.15 K, c1 = 0.3251	811 ± 1.1	1.02 ± 0.033
313.15 K, c1 = 0.3952	819.7 ± 1.1	1.062 ± 0.034
313.15 K, c1 = 0.4634	829.3 ± 1	1.1 ± 0.035
313.15 K, c1 = 0.6003	846.5 ± 1	1.175 ± 0.037
313.15 K, c1 = 0.6595	854.1 ± 0.9	1.226 ± 0.038
313.15 K, c1 = 0.7235	863 ± 0.9	1.246 ± 0.039
313.15 K, c1 = 0.8551	881.6 ± 0.8	1.324 ± 0.041
313.15 K, c1 = 0.9582	896.1 ± 0.8	1.388 ± 0.043

CCO [ethanol]
[2]
Settings	mass density [kg/m3]	viscosity [mPa·s]
100 kPa	–	1.082 ± 0.034
101.33 kPa	785.2 ± 1.2	–
